Patent US20250034208A1, “PEPTIDES AND PHARMACEUTICAL AND COSMETIC COMPOSITIONS CONTAINING THEM” (LABORATOIRES D'ANJOU, priority 2021, published 2025)
Bridges are numbered along the chain shown (N, C = ends). Where no end group is shown, it is not given here.

Columns and labels:
[1] = tested on: freshly isolated human primary keratinocytes; experiment: Wound closure test of a sheet of primary keratinocytes; assay type: cell-based; details: for wound closure activity, ranking of peptides: increasing order LRIRFTYK, CSGLRIRFTYKSGC, CLRIRFTYKC, Example 11, FIG. 10
Excerpt: (§1) • the HT1080 line: Cells originating from epithelial lines, tools commonly used for cell adhesion studies, were first used. The cells of the HT1080 line (fibrosarcoma, Human), American Type Culture Collection CCL-121. • primary human keratinocytes: For the cell viability and migration test, freshly isolated normal human keratinocytes were used. Human keratinocytes were obtained from preputial biopsy (surgical waste, tissue bank and cells, Edouard Herriot Hospital). The culture medium used during the experiments was the medium defined for KGM-Gold keratinocytes sold by Lonza Bioscience containing 0.15 mM of CaCl2, pH 7.2 to 7.4. The keratinocytes were obtained according to the Boyce and Ham technique (Cultivation, frozen storage, and clonal growth of normal human epidermal keratinocytes in serum free-media, Tiss Cuit. Meth. 1985, 9:83-93). The pieces of skin, after rinsing in PBS buffer containing antibiotics, were freed of the fat tissue and cut into 3 mm^2 pieces, then placed in a sterile solution of 0.25% trypsin in PBS for 16 h at 4° C. The dermis/epidermis separation was carried out in a Petri dish containing culture medium in order to stop the action of trypsin. The epidermis fragments were sucked in and discharged several times to detach the free basal cells. After centrifuging, 3.10^4 live cells were seeded per cm2 on dishes for tissue cultivation (Corning, Polylabo, France). The keratinocytes were cultured at 37° C. in a CO2 incubator (5% CO2, 95% air and 98% moisture). The sub-culture took place when the cells reached the sub-confluence. The sheet of cells was then rinsed with PBS, then covered with a solution of Trypsin-EDTA (0.05-0.02%). After a short incubation at 37° C., the cells were detached, counted, and re-seeded.
6-well plates (Costar) are covered with collagen I for 16 h then rinsed with PBS. Three inserts with two Ibidi-sterile wells (Ibidi, reference: 80209) are deposited in each of the wells. 2×10^4 keratinocytes are deposited in each insert well in KBM-Gold. After two hours of incubation in humid air at 37° C., composed of 5% CO2 and 95% atmospheric air, the culture medium is sucked out and the inserts removed. KBM-Gold with no supplement is added to each of the wells of the plate. The cells are thus: not treated (medium alone), treated with supplement-free KBM-Gold containing the peptides studied (25 μg/ml), or treated with supplement-free KBM-Gold containing EGF at 10 ng/ml (Peprotech). The cultures are stopped at 12 h and 24 h, the media are sucked out, and the cells are fixed with 2% PBS-Paraformaldehyde for 20 minutes. After the fixator has been sucked out, the cells are colored with a 0.1% solution of Crystal Violet in ultrapure water for 30 minutes. The Crystal Violet is removed and the wells are rinsed with water. Image acquisitions are carried out and the injuries are quantified using Adobe Photoshop CS3 software.

HT1080 cells = experiment: Cell adhesion test (colorimetric, crystal violet) on immobilized peptide; assay type: cell-based, Human; details: for adhesion response dependent on the amount of peptide immobilized in the wells: K substitution variants of LRIRATYG, Example 6, FIG. 5
Excerpt: as §1, with “After centrifuging, 3.10^4 live cells were seeded per cm2 on dishes for tissue cultivation (Corning, Polylabo, France). The keratinocytes were cultured at 37° C. in a CO2 incubator (5% CO2, 95% air and 98% moisture). The sub-culture took place when the cells reached the sub-confluence. The sheet of cells was then rinsed with PBS, then covered with a solution of Trypsin-EDTA (0.05-0.02%).” left out, “re-seeded. […]” for “re-seeded.”
After seeding the cells, the plates were placed in an incubator at 37° C. in a 5% CO2 atmosphere. […] The absorbance was read at 570 nm using a plate reader (Victor^2 V Spectrophotometer, Perkin Elmer). […] The negative control value is the average of the absorbance of the three control wells (BSA). This was subtracted from each of the absorbance values obtained for the experimental points. The averages of the absorbance values for each of the conditions were calculated and were presented in the form of a curve, with on the y-axis, the average values of the absorbance, and on the x-axis, the various quantities of substrate immobilized in the wells (in μg or mole). […]

[2] = tested on: keratinocytes of the epidermis and other epithelial cells; details: prior patent EP1784423 of the Applicant; cited from earlier work
[3] = 25 μg/ml peptide, 12 and 24 h, Example 5, FIG. 4

CLRIRFTYKC (disulfide 1-10 (inferred); not fully specified)
wound closure activity, ranking of peptides [1]: most significant activities

CSGLRIRATYGSGC (Other sequences)
wound closure activity compared to TALRIRATYGEY and LRIRATYG [1, 3]: significantly greater activity at 12 and 24 h
wound closure activity compared with the other peptides ([1]; 25 μg/ml peptide, 12 h and 24 h, Example 4, FIG. 3): significantly greater than that of the other peptides
wound closure compared with negative control ([1]; 25 μg/ml peptide, 12 h and/or 24 h post-injury, negative control culture medium alone, Example 4, FIG. 3): very significantly greater than that of the negative control
wound closure activity compared with negative control ([1]; 25 μg/ml peptide, time not given, Example 5, FIG. 4): significantly greater than that of the negative control
adhesion induction activity relative to the LRIRATYG motif (HT1080 cells; low concentration of immobilized peptide, Examples 2 and 3, FIG. 1 and 2): activity being doubled at a low concentration

CSGLRIRFTYKSGC (disulfide 1-14 (inferred); not fully specified)
wound closure activity, ranking of peptides [1]: most significant activities

LRIRATYK (Other sequences)
adhesion response dependent on the amount of peptide immobilized in the wells (HT1080 cells): decreases

LRIRKTYG (Other sequences)
adhesion response dependent on the amount of peptide immobilized in the wells (HT1080 cells): disappears

TALRIRATYGEY (Other sequences) [reference compound]
induction of cell adhesion [2]: specifically induces the adhesion
wound closure activity, LRIRATYG and TALRIRATYGEY compared between them [1, 3]: equivalent activity between them
wound closure activity compared with negative control ([1]; 25 μg/ml peptide, 24 h, negative control culture medium alone, Example 5, FIG. 4): significantly greater than that of the negative control
